Assay results: patent EP2210881A1, “Derivatives of syringolin A” (Max-Planck-Gesellschaft zur Förderung der Wissenschaften …, priority 2009, dated 2010)
pKi: −log10 of the molar value. Where two headings read alike, the source gives them in different places.

Tests used:
Type in all cases: biochemical
human 20S proteasome [1] = target: T1, human 20S proteasome (Homo sapiens, UniProt P28072); assay: Proteasome inhibition assay, caspase-like activity (substrate Z-LLE-AMC)
T1 construct: human erythrocyte 20S proteasomes (AK-740, Biomol); purchased Biomol AK-740; host or cells: human erythrocytes
Description: (§1) The Ki' value is defined as the apparent dissociation constant of the inhibitor. The Ki' value can be calculated from the IC50 value using the equation: Ki' = IC50 * Km / (S+Km), wherein S is the concentration of the substrate, and Km is the substrate concentration (in the absence of an inhibitor) at which the velocity of the reaction is half-maximal. The Ki' of an inhibitor for inhibition of a particular substrate (fixed Km) is constant.
As used herein, the term "caspase-like activity" refers to inhibition of the human 20S proteasome measured by the reduced proteolytic cleavage of the "caspase-lie" proteasome substrate Z-LLE-AMC.
(§2) Proteasome inhibition assays were performed with human erythrocyte 20S proteasomes (AK-740, Biomol) at 37 °C in 100 µL reaction volumes containing 2 µg ml^-1 20 proteasome and 100 µM Suc-LLVY-AMC as a substrate. Cleavage efficience in presence of varying inhibitor concentrations were followed by an MWGt Sirius HT plate reader (BIO-TEK instruments) equipped with 360 nm excitation and 460 nm emission filters. The obtained fluorescence values (RFU) were plotted versus time (t). The fluorescence data were fitted by the least squares method using SigmaPlot 10.0 software (Systat Software) to the equation f = f0 + Vst + [(vi - vs)/kobs][1-exp(-kobs*t)], where vi and vs are initial and final velocities, respectively, and kobs is the pseudo-first order associaten rate constant. Ki' values were then determined by plotting vi against inhibitor concentration [I]. Using SigmaPlot, the data were fitted with the hyperbolic equation vi = c + [v0/(Ki' + [I])] where v0 is the velocity of the control.
The inhibition of the caspase-like proteasome activity was performed in analogy to example 7 with using Z-LLE-AMC as a substrate instead of Suc-LLVY-AMC.

human 20S proteasome [2] = target: T2, human 20S proteasome (Homo sapiens, UniProt P28074); assay: Proteasome inhibition assay, chymotryptic activity (substrate Suc-LLVY-AMC)
T2 construct: human erythrocyte 20S proteasomes (AK-740, Biomol); purchased Biomol AK-740; host or cells: human erythrocytes
Description: as §1
As used herein, the term "chymotryptic activity" refers to inhibition of the human 20S proteasome measured by the reduced proteolytic cleavage of the "chymotryptic" proteasome substrate Suc-LLVY-AMC.
as §2

human 20S proteasome [3] = target: T3, human 20S proteasome (Homo sapiens, UniProt Q99436); assay: Proteasome inhibition assay, tryptic activity (substrate Boc-LRR-AMC)
T3 construct: human erythrocyte 20S proteasomes (AK-740, Biomol); purchased Biomol AK-740; host or cells: human erythrocytes
Description: as §1
As used herein, the term "tryptic activity" refers to inhibition of the human 20S proteasome measured by the reduced proteolytic cleavage of the "tryptic" proteasome substrate Boc-LRR-AMC.
as §2
The inhibition of the tryptic proteasome activity was performed in analogy to example 7 with using Boc-LRR-AMC as a substrate instead of Suc-LLVY-AMC.

## COC(=O)[C@@H](NC(=O)N[C@H](C(=O)N[C@H]1/C=C/CCNC(=O)/C=C/[C@H](C(C)C)NC1=O)C(C)C)C(C)C [Compound 1, SylA-OCH3]
Human 20S proteasome [1]
  pKi: < 4.30
Human 20S proteasome [2]
  pKi: < 7.00
Human 20S proteasome [3]
  pKi: < 7.00

## COCCOCCOCCNC(=O)N[C@H](C(=O)N[C@H]1/C=C/CCNC(=O)/C=C/[C@H](C(C)C)NC1=O)C(C)C [Compound 5, SylA-PEG2]
Human 20S proteasome [1]
  pKi: < 7.00
Human 20S proteasome [2]
  pKi: > 7.70
Human 20S proteasome [3]
  pKi: 7.00 to 7.70

## COCCOCCNC(=O)[C@@H](NC(=O)N[C@H](C(=O)N[C@H]1/C=C/CCNC(=O)/C=C/[C@H](C(C)C)NC1=O)C(C)C)C(C)C [Compound 3, SylA-PEG1]
Human 20S proteasome [1]
  pKi: < 7.00
Human 20S proteasome [2]
  pKi: > 7.70
Human 20S proteasome [3]
  pKi: 7.00 to 7.70

## CC(C)[C@H](NC(=O)N[C@H](C(=O)N[C@H]1/C=C/CCNC(=O)/C=C/[C@H](C(C)C)NC1=O)C(C)C)C(=O)NCCCCCNC(=O)c1ccc(-c2c3ccc(=[N+](C)C)cc-3oc3cc(N(C)C)ccc23)c(C(=O)[O-])c1 [Compound 2, SylA-Rhodamine]
Human 20S proteasome [1]; read-out: caspase-like activity [Ki' value in nM], human erythrocyte 20S proteasomes, substrate Z-LLE-AMC, 37 °C, Ki' = apparent dissociation constant
  Ki: > 50000 nM
Human 20S proteasome [2]; read-out: chymotryptic activity [Ki' value in nM], human erythrocyte 20S proteasomes, substrate Suc-LLVY-AMC 100 µM, 37 °C, Ki' = apparent dissociation constant
  Ki: > 100 nM
Human 20S proteasome [3]; read-out: tryptic activity [Ki' value in nM], human erythrocyte 20S proteasomes, substrate Boc-LRR-AMC, 37 °C, Ki' = apparent dissociation constant
  Ki: > 100 nM

## CCCCCCCCCCNC(=O)N[C@H](C(=O)N[C@H]1/C=C/CCNC(=O)/C=C/[C@H](C(C)C)NC1=O)C(C)C [Compound 4, SylA-decanyl]
Human 20S proteasome [1]
  pKi: < 7.00
Human 20S proteasome [2]
  pKi: > 7.70
Human 20S proteasome [3]
  pKi: 7.00 to 7.70
